Results published in patent publication US20240374590A1, “COMPOSITIONS AND METHODS FOR TREATING CANCER” (A2A PHARMACEUTICALS, INC., priority 2021, published 2024).

How the values were obtained:
[1] = system: JIMT-1 human breast cancer cell line; test: Cell viability assay (SRB) in JIMT-1; assay type: cell-based; settings: 72 hours after treatment, read-out: JIMT1 IC50
Protocol: (§1) Human colon carcinoma cell line HCT-116 was a kind gift from Igor Ronninson from University of South Caroli, Columbia, USA. Human breast cancer cell line, JIMT-1 was kindly provided by Ali Osmay Güre from Bilkent University, Ankara, Turkey. Cells were cultured in Dulbecco's modified Eagle's medium (Lonza, NJ, USA), supplemented with 10% fetal bovine serum (FBS, Lonza), 1% non-essential amino acid (NEAA), 2 mM L-glutamine (Sigma Aldrich, MO, USA) and 50 U/ml penicillin/streptomycin (P/S). HCT-116 cells were cultured in McCoy's 5A (modified) (Gibco) medium supplemented with FBS, NEAA, L-glutamine and P/S. All cell lines were tested regularly using MycoAlert Mycoplasma Detection Kit (Lonza). The cumulative length of the cells between thawing and use in the experiments was less than 20 passages.
(§2) Newly synthesized molecules were dissolved in 100% DMSO to yield a stock concentration of 10 mM. For cell viability assay, JIMT-1 (3×10^3 cells/well) and HCT-116 (4×10^3), cells were seeded into 96-well plates, and 24 hours after cell seeding inhibitor treatments were performed at different concentrations. Cell viability was measured 72 hours after treatment with Sulforhodamine B (SRB, Sigma Aldrich) assay as recommended by the manufacturer.

[2] = system: HCT-116 human colon carcinoma cell line; test: Cell viability assay (SRB) in HCT-116; assay type: cell-based; settings: 72 hours after treatment, read-out: HCT116 IC50
Protocol: as §1, §2

SMILES	IC50 [1] [nM]	IC50 [2] [nM]
COc1ccc(-c2n[nH]c(Nc3ccnc(N4CCOCC4)n3)c2C)cc1 [Compound 181, N-(3-(4-methoxyphenyl)-4-methyl-1H-pyrazol-5-yl)-2-morpholinopyrimidin-4-amine]	2630	4480
COc1ccc(-c2cc(Nc3ccnc(N4CCOCC4)n3)n(C)n2)cc1 [Compound 184, N-(3-(4-methoxyphenyl)-1-methyl-1H-pyrazol-5-yl)-2-morpholinopyrimidin-4-amine]	8790	20000
COc1ccc(-c2cc(Nc3ccnc(N4C[C@@H](C)O[C@@H](C)C4)n3)n(C)n2)c(F)c1 [Compound 187, 2-((2R,6S)-2,6-dimethylmorpholino)-N-(3-(2-fluoro-4-methoxyphenyl)-1-methyl-1H-pyrazol-5-yl)pyrimidin-4-amine]	158	228
COc1ccc(-c2cc(Nc3ccnc(N4C[C@@H](C)O[C@@H](C)C4)n3)nn2C)c(F)c1 [Compound 190, 2-((2R,6S)-2,6-dimethylmorpholino)-N-(5-(2-fluoro-4-methoxyphenyl)-1-methyl-1H-pyrazol-3-yl)pyrimidin-4-amine]	251	484
C[C@@H]1CN(c2nccc(Nc3cc(-c4ccc(C#N)cc4)n[nH]3)n2)C[C@H](C)O1 [Compound 191b, 4-(5-((2-((2R,6S)-2,6-dimethylmorpholino)pyrimidin-4-yl)amino)-1H-pyrazol-3-yl)benzonitrile]	1570	1520
C[C@@H]1CN(c2nccc(Nc3cc(-c4ccc(OC(F)(F)F)c(Cl)c4)n[nH]3)n2)C[C@H](C)O1 [Compound 192b, N-(3-(3-chloro-4-(trifluoromethoxy)phenyl)-1H-pyrazol-5-yl)-2-((2R,6S)-2,6-dimethylmorpholino)pyrimidin-4-amine]	4640	8970
C[C@@H]1CN(c2nccc(Nc3cc(-c4ccc(F)cc4)[nH]n3)n2)C[C@H](C)O1 [Compound 196, 2-((2R,6S)-2,6-dimethylmorpholino)-N-(5-(4-fluorophenyl)-1H-pyrazol-3-yl)pyrimidin-4-amine]	383	619
C[C@@H]1CN(c2nccc(Nc3cc(-c4ccc(C(C)(F)F)cc4)n[nH]3)n2)C[C@H](C)O1 [Compound 200, N-(3-(4-(1,1-difluoroethyl)phenyl)-1H-pyrazol-5-yl)-2-((2R,6S)-2,6-dimethylmorpholino)pyrimidin-4-amine]	143	386
C[C@@H]1CN(c2nccc(Nc3cc(-c4ccc(C(F)F)cc4)n[nH]3)n2)C[C@H](C)O1 [Compound 202, N-(3-(4-(difluoromethyl)phenyl)-1H-pyrazol-5-yl)-2-((2R,6S)-2,6-dimethylmorpholino)pyrimidin-4-amine]	187	722
COc1cc(-c2cc(Nc3ccnc(N4C[C@@H](C)O[C@@H](C)C4)n3)[nH]n2)cc(OC)c1OC [Compound 203, 2-((2R,6S)-2,6-dimethylmorpholino)-N-(3-(3,4,5-trimethoxyphenyl)-1H-pyrazol-5-yl)pyrimidin-4-amine]	1700	2490
COc1ccc(-c2cc(Nc3ccnc(N4C[C@@H](C)O[C@@H](C)C4)n3)[nH]n2)cc1C(F)(F)F [Compound 207, 2-((2R,6S)-2,6-dimethylmorpholino)-N-(3-(4-methoxy-3-(trifluoromethyl)phenyl)-1H-pyrazol-5-yl)pyrimidin-4-amine]	974	5530
C[C@@H]1CN(c2nccc(Nc3cc(-c4ccc(Br)cc4)n[nH]3)n2)C[C@H](C)O1 [Compound 208, N-(3-(4-bromophenyl)-1H-pyrazol-5-yl)-2-((2R,6S)-2,6-dimethylmorpholino)pyrimidin-4-amine]	212	448
CC1COCC(C)N1c1nccc(Nc2cc(-c3ccc(OC(F)F)cc3)n[nH]2)n1 (stereo not drawn) [Compound 227, N-(3-(4-(difluoromethoxy)phenyl)-1H-pyrazol-5-yl)-2-(3,5-dimethylmorpholino)pyrimidin-4-amine]	1430	2260
FC(F)Oc1ccc(-c2cc(Nc3ccnc(N4CCCC4)n3)[nH]n2)cc1 [Compound 242, N-(3-(4-(difluoromethoxy)phenyl)-1H-pyrazol-5-yl)-2-(pyrrolidin-1-yl)pyrimidin-4-amine]	110	1490

These reach a lower IC50 [1]. Values come first.

IC50 [1] [nM]	IC50 [2] [nM]	SMILES
103	1060	C[C@@H]1CN(c2nccc(Nc3cc(-c4ccc(OC(F)F)cc4)n[nH]3)n2)C[C@@H](C)O1 [Compound 240, N-(3-(4-(difluoromethoxy)phenyl)-1H-pyrazol-5-yl)-2-((2R,6R)-2,6-dimethylmorpholino)pyrimidin-4-amine]
96	62	CC1COCCN1c1nccc(Nc2cc(-c3ccc(OC(F)F)cc3)n[nH]2)n1 (stereo not drawn) [Compound 229, N-(3-(4-(difluoromethoxy)phenyl)-1H-pyrazol-5-yl)-2-(3-methylmorpholino)pyrimidin-4-amine]
76	91	C[C@@H]1CN(c2nccc(Nc3cc(-c4ccc(OC(F)F)cc4)n[nH]3)n2)C[C@H](C)O1 [Compound 201, N-(3-(4-(difluoromethoxy)phenyl)-1H-pyrazol-5-yl)-2-((2R,6S)-2,6-dimethylmorpholino)pyrimidin-4-amine]
71	≥ 10000	FC1CN(c2nccc(Nc3cc(-c4ccc(OC(F)F)cc4)n[nH]3)n2)C1 [Compound 246, N-(3-(4-(difluoromethoxy)phenyl)-1H-pyrazol-5-yl)-2-(3-fluoroazetidin-1-yl)pyrimidin-4-amine]
47	76	COc1ccc(-c2cc(Nc3ccnc(N4CCCC4C)n3)[nH]n2)c(F)c1 (stereo not drawn) [Compound 159, N-(3-(2-fluoro-4-methoxyphenyl)-1H-pyrazol-5-yl)-2-(2-methylpyrrolidin-1-yl)pyrimidin-4-amine]
47	≥ 10000	CC1CN(c2nccc(Nc3cc(-c4ccc(OC(F)F)cc4)n[nH]3)n2)C1 [Compound 245, N-(3-(4-(difluoromethoxy)phenyl)-1H-pyrazol-5-yl)-2-(3-methylazetidin-1-yl)pyrimidin-4-amine]
46	1810	C[C@H]1CN(c2nccc(Nc3cc(-c4ccc(OC(F)F)cc4)n[nH]3)n2)C[C@H](C)O1 [Compound 241, N-(3-(4-(difluoromethoxy)phenyl)-1H-pyrazol-5-yl)-2-((25,6S)-2,6-dimethylmorpholino)pyrimidin-4-amine]
46	1120	FC(F)Oc1ccc(-c2cc(Nc3ccnc(N4CCC4)n3)[nH]n2)cc1 [Compound 244, 2-(azetidin-1-yl)-N-(3-(4-(difluoromethoxy)phenyl)-1H-pyrazol-5-yl)pyrimidin-4-amine]
43	39	C[C@@H]1CN(c2nccc(Nc3cc(-c4ccc5c(c4)CCC5)[nH]n3)n2)C[C@H](C)O1 [Compound 211, N-(5-(2,3-dihydro-1H-inden-5-yl)-1H-pyrazol-3-yl)-2-((2R,6S)-2,6-dimethylmorpholino)pyrimidin-4-amine]
41	89	COc1ccc(-c2cc(Nc3ccnc(N4CCCCCC4)n3)[nH]n2)c(F)c1 [Compound 167, 2-(azepan-1-yl)-N-(3-(2-fluoro-4-methoxyphenyl)-1H-pyrazol-5-yl)pyrimidin-4-amine]
39	147	COc1ccc(-c2cc(Nc3ccnc(N4CCC(C)C4)n3)[nH]n2)c(F)c1 (stereo not drawn) [Compound 160, N-(3-(2-fluoro-4-methoxyphenyl)-1H-pyrazol-5-yl)-2-(3-methylpyrrolidin-1-yl)pyrimidin-4-amine]
30	31	C[C@@H]1CN(c2nccc(Nc3cc(-c4ccc(OCF)cc4)n[nH]3)n2)C[C@H](C)O1 [Compound 210, 2-((2R,6S)-2,6-dimethylmorpholino)-N-(3-(4-(fluoromethoxy)phenyl)-1H-pyrazol-5-yl)pyrimidin-4-amine]
27	96	C[C@@H]1CN(c2nccc(Nc3cc(-c4ccc5occc5c4)n[nH]3)n2)C[C@H](C)O1 [Compound 205, N-(3-(benzofuran-5-yl)-1H-pyrazol-5-yl)-2-((2R,6S)-2,6-dimethylmorpholino)pyrimidin-4-amine]
17	53	FC(F)Oc1ccc(-c2cc(Nc3ccnc(N4CCCCC4)n3)[nH]n2)cc1 [Compound 243, N-(3-(4-(difluoromethoxy)phenyl)-1H-pyrazol-5-yl)-2-(piperidin-1-yl)pyrimidin-4-amine]
13	20	COc1cc(F)c(-c2cc(Nc3ccnc(N4C[C@@H](C)O[C@@H](C)C4)n3)[nH]n2)cc1F [Compound 218, N-(3-(2,5-difluoro-4-methoxyphenyl)-1H-pyrazol-5-yl)-2-((2R,6S)-2,6-dimethylmorpholino)pyrimidin-4-amine]
6	5	C[C@@H]1CN(c2nccc(Nc3cc(-c4ccc5c(ccn5C)c4)n[nH]3)n2)C[C@H](C)O1 [Compound 217, 2-((2R,6S)-2,6-dimethylmorpholino)-N-(3-(1-methyl-1H-indol-5-yl)-1H-pyrazol-5-yl)pyrimidin-4-amine]
